ChEMBL document CHEMBL2331276, “A novel class of 3-(phenoxy-phenyl-methyl)-pyrrolidines as potent and balanced norepinephrine and serotonin reuptake inhibitors: synthesis and structure-activity relationships” (Bioorg Med Chem Lett, 2013)

Tests used:
[1] = in vitro; conditions: human, liver microsomes
[2] = in vitro; conditions: rat, liver microsomes
[3] = Oral bioavailability in rat at 10 mg/kg; assay type: ADME, organism-based; conditions: in vivo
[4] = AUC in rat at 10 mg/kg, po; assay type: ADME, organism-based; set-up: dose 10 mg/kg, route oral; conditions: plasma

| SMILES | microsomal CLint [1] [µL/min/mg] | microsomal CLint [2] [µL/min/mg] | bioavailability [3] [%] | AUC [4] [ng·h/mL] |
| --- | --- | --- | --- | --- |
| Clc1cccc(O[C@@H](c2ccccc2)[C@H]2CCNC2)c1Cl | < 5 | – | – | – |
| Clc1cc(Cl)cc(O[C@@H](c2ccccc2)[C@H]2CCNC2)c1 | < 5 | 4530 | – | – |
| Clc1cc(Cl)cc(O[C@H](c2ccccc2)[C@@H]2CCNC2)c1 | < 5 | 21 | – | – |
| Fc1ccc(O[C@@H](c2ccccc2)[C@H]2CCNC2)c(Cl)c1 | < 5 | 185 | – | – |
| COc1cc(Cl)ccc1O[C@@H](c1ccccc1)[C@H]1CCNC1 | < 5 | 1990 | – | – |
| COc1cc([N+](=O)[O-])ccc1O[C@@H](c1ccccc1)[C@H]1CCNC1 | < 5 | – | – | – |
| Clc1cc(Cl)c(Cl)c(O[C@H](c2ccccc2)[C@@H]2CCNC2)c1 | < 5 | 100 | – | – |
| Clc1ccc(Cl)c(O[C@@H](c2ccccc2)[C@H]2CCNC2)c1Cl | < 5 | 4620 | – | – |
| Clc1ccc(Cl)c(O[C@H](c2ccccc2)[C@@H]2CCNC2)c1Cl | < 5 | 4600 | 6 | 70 |
| Fc1ccc(F)c(O[C@@H](c2ccccc2)[C@H]2CCNC2)c1Cl | 113 | 1660 | – | – |
| Fc1ccc(F)c(O[C@H](c2ccccc2)[C@@H]2CCNC2)c1Cl | 115 | 1340 | – | – |
| Fc1cc(F)c(F)c(O[C@H](c2ccccc2)[C@@H]2CCNC2)c1F | < 5 | 200 | – | – |
| CCN(CC)C(=O)C1(c2ccccc2)CC1CN (stereo not drawn) | < 5 | < 5 | – | – |
| CCOc1ccccc1O[C@@H](c1ccccc1)[C@@H]1CNCCO1 [ESREBOXETINE] | 570 | 5100 | – | – |
